# Assay results reported in article PMC5855630, “The Design and Development of Potent Small Molecules as Anticancer Agents Targeting EGFR TK and Tubulin Polymerization” (International Journal of Molecular Sciences, 2018).
# Several values for one entry are separate records, joined by “and”; a condition that tells them apart may be missing. Identical values can stand only once.
# How the values were obtained:
# [1] = system: MDA-MB-231 breast cancer cell line; assay: MTT cancer cell antiproliferative assay, MDA-MB-231; assay type: cell-based, human; conditions: 24 h treatment
# Method: (§1) The newly synthesized compounds 4a–e, 6a–c and 9a–d were evaluated for their in vitro anticancer activity against two breast cancer cell lines; Michigan cancer foundation-7 (MCF-7) and M.D. Anderson metastasis breast cancer-231 (MDA-MB-231) according to (3-(4,5-dimethylthiazole-2-yl)-2,5-diphenyltetrazolium bromide) tetrazolium (MTT) assay method by using erlotinib as positive tyrosine kinase (TK) drug.
# (§2) The in vitro anticancer activities of the target compounds against two breast cancer cell lines; luminal human breast adenocarcinoma (estrogen-receptor (ER) and progesterone-receptor (PR)) positive MCF-7 and negative human breast cancer (MDA-MB-231) cell lines were evaluated as described with some modifications. Cell line cells were obtained from American Type Culture Collection, cells was cultured using DMEM (Invitrogen Life Technologies, Waltham, MA, USA) supplemented with 10% FBS (Hyclone, Logan, UT, USA), 10 µg/mL of insulin (Sigma, St. Louis, MO, USA), and 1% penicillin-streptomycin. All of the other chemical sand reagents were from (Sigma, St. Louis, MO, USA). The cells […] were sub-cultured into a 96-well plate with […] per well in medium, at 37 °C, 5% CO2 and 95% air atmosphere, before being treated with or without various concentrations of test compounds, each in triplicate for 24 h. At the end of the incubation, the cells were harvested and washed with PBS. 20 µL of MTT was added to each well and incubated for 2 h before 200 µL DMSO was added. The absorbance was measured on an ELISA reader (Multiskan EX, Lab systems, Waltham, MA, USA) at a test wavelength of 570 nm.
# [2] = system: MCF-7 breast cancer cell line; assay: MTT cancer cell antiproliferative assay, MCF-7; assay type: cell-based; conditions: Homo sapiens, MCF7, 24 h treatment
# Method: as §1, §2
# [3] = biological target: T1, epidermal growth factor receptor (EGFR) tyrosine kinase (TK) (Homo sapiens, UniProt P00533); assay: EGFR TK inhibition assay (HT Scan EGFR kinase assay kit); assay type: biochemical; conditions: GST-EGFR protein, 400 μM ATP
# T1 construct: purchased Cell Signaling Technology
# Method: The compound (4b) bears flexible benzylamine terminal moiety, while the (6a) and (6c) derivatives bear sulphonamide moieties and 9a–b with Schiff fragments.
# EGFR kinase activity was measured by HT Scan EGFR kinase assay kits (Cell Signaling Technology, Danvers, MA, USA). The experiments were done following the manufacturer’s directions. […] Strapavidin-coated 96-well plates was used to take phosphorylated substrate. Anti-phosphotyrosine and europium-labeled secondary antibodies (DELFIA, Perkin-Elmer, Akron, OH, USA) was used to monitor the level of phosphorylation. At the end of the assay, the enrichment solution was added and enzyme activity was assessed in the Wallac Victor II 1420 micro-plate reader (Abcam, Milton, Cambridge, UK) and […].
# [4] = biological target: tubulin polymerization (Tubulin Beta, Tubb) (Homo sapiens, UniProt P07437+P68363); assay: Tubulin polymerization inhibition (ELISA for Tubulin Beta); assay type: biochemical
# Text: Microtubule-targeting agents affect microtubule function and stop mitosis, resulting in necrosis and apoptosis and eventually cell death.
# This assay was done according to reported procedures
# MDA-MB-231 cells = assay: Annexin V-FITC apoptosis analysis; assay type: cell-based, human; conditions: IC50 concentration, 48 h
# Text: Apoptosis induction was examined in treated MDA-MB-231 cells by use of an Annexin V-fluorescine isothiocyanate (FITC) (Abcam, Milton, Cambridge, UK). The treatment of the cells with target compound (6c) and erlotinib drug with antiproliferative detected concentrations have been applied for comparison. […] The apoptosis-inducing effect of target compound was investigated by flow cytometric analysis of MDA-MB-231 cells stained with Annexin V and propidium iodide. […] This might be extra behavior interpreting the potent cytotoxic effect of such compounds.
# This analysis was performed following the reported procedures.
# T1 sequence (P00533 25-1210): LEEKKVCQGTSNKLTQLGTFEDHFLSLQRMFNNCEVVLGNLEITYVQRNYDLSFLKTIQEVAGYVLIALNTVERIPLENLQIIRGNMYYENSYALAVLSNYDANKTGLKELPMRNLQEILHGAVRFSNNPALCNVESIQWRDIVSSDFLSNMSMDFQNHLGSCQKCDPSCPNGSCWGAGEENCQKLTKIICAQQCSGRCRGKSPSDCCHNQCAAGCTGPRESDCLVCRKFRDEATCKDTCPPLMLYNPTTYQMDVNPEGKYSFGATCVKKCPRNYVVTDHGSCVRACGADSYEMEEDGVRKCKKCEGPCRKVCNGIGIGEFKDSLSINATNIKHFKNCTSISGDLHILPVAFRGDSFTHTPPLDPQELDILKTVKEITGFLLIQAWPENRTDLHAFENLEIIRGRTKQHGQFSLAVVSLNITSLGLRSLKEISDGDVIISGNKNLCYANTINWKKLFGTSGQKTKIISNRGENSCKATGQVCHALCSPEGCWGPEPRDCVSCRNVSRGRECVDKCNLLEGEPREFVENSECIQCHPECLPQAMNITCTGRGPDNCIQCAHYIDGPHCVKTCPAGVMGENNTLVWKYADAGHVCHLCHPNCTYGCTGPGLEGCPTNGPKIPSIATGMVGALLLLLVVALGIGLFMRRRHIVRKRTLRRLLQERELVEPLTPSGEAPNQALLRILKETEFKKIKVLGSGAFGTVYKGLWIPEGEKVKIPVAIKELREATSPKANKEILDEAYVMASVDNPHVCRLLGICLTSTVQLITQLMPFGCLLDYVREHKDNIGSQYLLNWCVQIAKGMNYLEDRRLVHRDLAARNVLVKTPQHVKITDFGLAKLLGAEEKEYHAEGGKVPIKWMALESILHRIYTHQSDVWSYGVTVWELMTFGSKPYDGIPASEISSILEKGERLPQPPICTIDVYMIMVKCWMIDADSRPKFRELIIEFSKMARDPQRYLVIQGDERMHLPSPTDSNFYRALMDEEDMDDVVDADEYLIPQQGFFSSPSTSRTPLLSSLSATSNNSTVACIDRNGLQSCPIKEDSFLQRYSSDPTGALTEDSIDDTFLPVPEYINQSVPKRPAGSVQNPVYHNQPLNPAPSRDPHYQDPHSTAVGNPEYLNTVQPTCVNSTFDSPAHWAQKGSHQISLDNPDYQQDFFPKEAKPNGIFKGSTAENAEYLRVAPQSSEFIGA
# Chain of tubulin polymerization (Tubulin Beta, Tubb) (P07437 whole entry): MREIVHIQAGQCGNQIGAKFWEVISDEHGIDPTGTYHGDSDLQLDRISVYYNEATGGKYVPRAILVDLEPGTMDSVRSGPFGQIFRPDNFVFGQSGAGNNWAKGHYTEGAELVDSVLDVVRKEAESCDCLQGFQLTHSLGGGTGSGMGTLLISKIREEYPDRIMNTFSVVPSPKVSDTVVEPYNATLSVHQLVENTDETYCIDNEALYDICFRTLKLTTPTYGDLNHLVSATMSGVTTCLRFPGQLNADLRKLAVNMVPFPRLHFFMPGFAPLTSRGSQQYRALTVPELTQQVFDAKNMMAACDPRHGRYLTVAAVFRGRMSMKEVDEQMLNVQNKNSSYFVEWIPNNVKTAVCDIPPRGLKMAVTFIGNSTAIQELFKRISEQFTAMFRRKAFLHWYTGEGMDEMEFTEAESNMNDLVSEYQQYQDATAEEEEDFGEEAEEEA
# Chain of tubulin polymerization (Tubulin Beta, Tubb) (P68363 whole entry): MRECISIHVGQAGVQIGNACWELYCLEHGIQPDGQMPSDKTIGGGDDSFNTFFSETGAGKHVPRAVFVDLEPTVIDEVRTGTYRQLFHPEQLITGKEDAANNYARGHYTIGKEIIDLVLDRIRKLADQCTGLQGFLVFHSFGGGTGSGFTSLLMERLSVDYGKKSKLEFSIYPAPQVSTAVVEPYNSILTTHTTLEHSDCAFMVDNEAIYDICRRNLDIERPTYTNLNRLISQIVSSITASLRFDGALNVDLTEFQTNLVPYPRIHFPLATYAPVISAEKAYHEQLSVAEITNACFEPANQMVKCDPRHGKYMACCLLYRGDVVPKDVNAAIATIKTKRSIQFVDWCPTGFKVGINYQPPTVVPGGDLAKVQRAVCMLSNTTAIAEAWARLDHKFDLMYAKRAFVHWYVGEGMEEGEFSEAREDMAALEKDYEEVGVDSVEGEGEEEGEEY
Compound,"IC50 ([1]; Homo sapiens, MDA-MB-231, 24 h) [nM]",melting point [°C],IC50 [2] [nM],IC50 [3],IC50 [4] [nM],IC50 [1] [nM],Apoptosis induction (Annexin V / propidium iodide flow cytometry) (MDA-MB-231 cells)
O=C(Nc1ccccc1C(=O)NCc1ccccc1)c1ccco1 [Compound 4a],8.82 ± 0.14,230 to 232,3.35 ± 0.11,–,–,–,–
"O=C(Nc1ccccc1C(=O)NCc1ccc(Cl)cc1)c1ccco1 [Compound 4d, N-{2-[(4-Chlorobenzyl)carbamoyl]phenyl}furan-2-carboxamide]",3.29 ± 0.14,213 to 215,0.64 ± 0.25,–,–,–,–
"Cc1ccc(CNC(=O)c2ccccc2NC(=O)c2ccco2)cc1 [Compound 4e, N-{2-[(4-Methylbenzyl)carbamoyl]phenyl}furan-2-carboxamide]",5.59 ± 0.2,175 to 178,0.88 ± 0.25,–,–,–,–
"O=C(Nc1ccccc1C(=O)Nc1ccc(S(=O)(=O)Nc2ccccn2)cc1)c1ccco1 [Compound 6b, N-{2-[(4-(N-(Pyridin-2-Yl)sulfamoyl]phenyl)carbamoyl)phenyl}furan-2-carboxamide]",4.45 ± 0.3,209 to 211,0.065,–,–,–,–
"NNC(=O)c1ccccc1NC(=O)c1ccco1 [Compound 7, N-[2-(Hydrazinecarbonyl)phenyl]furan-2-carboxamide]",35.85 ± 0.12,210 to 212,1.91 ± 0.11,–,–,–,–
"O=C(Nc1ccccc1C(=O)N/N=C/c1ccccn1)c1ccco1 [Compound 9c, (E)-N-{2-[2-(Pyridin-2-ylmethylene)hydrazine-1-carbonyl]phenyl}furan-2-carboxamide]",14.8 ± 0.2,–,0.15 ± 0.15,–,–,–,–
"C#Cc1cccc(Nc2ncnc3cc(OCCOC)c(OCCOC)cc23)c1 [Erlotinib, reference compound]",3.74 ± 0.01,–,0.45 ± 0.08,–,–,–,accumulation of apoptotic cells

# Stronger by IC50 ([1]; Homo sapiens, MDA-MB-231, 24 h), values ahead:
"IC50 ([1]; Homo sapiens, MDA-MB-231, 24 h) [nM]",melting point [°C],IC50 [2] [nM],IC50 [3],IC50 [4] [nM],IC50 [1] [nM],Compound,Apoptosis induction (Annexin V / propidium iodide flow cytometry) (MDA-MB-231 cells)
3.11 ± 0.5,218 to 220,2.59 ± 0.32,–,–,–,"O=C(Nc1ccccc1C(=O)NCc1ccc(F)cc1)c1ccco1 [Compound 4c, N-{2-[(4-Fluorobenzyl)carbamoyl]phenyl}furan-2-carboxamide]",–
2.53 ± 0.12,212 to 214,0.48 ± 0.14,–,–,–,"O=C(Nc1ccccc1C(=O)N/N=C/c1ccc(Cl)cc1Cl)c1ccco1 [Compound 9d, (E)-N-{2-[2-(2,4-Dichlorobenzylidene)hydrazine-1-carbonyl]phenyl}furan-2-carboxamide]",–
1.21 ± 0.25,190 to 192,2.43 ± 0.2,–,–,–,"COC(=O)c1ccccc1NC(=O)c1ccco1 [Compound 2, Methyl 2-(Furan-2-carboxamido)benzoate]",–
0.76 ± 0.11,207 to 209,0.45 ± 0.12,31 nM and 30.5 nM,140.8 ± 0.15,–,"COc1ccc(CNC(=O)c2ccccc2NC(=O)c2ccco2)cc1 [Compound 4b, N-{2-[(4-Methoxybenzyl)carbamoyl]phenyl}furan-2-carboxamide]",–
0.68 ± 0.02,205 to 207,0.51 ± 0.16,59.3 ± 0.11 nM,410.6 ± 0.12,–,"O=C(Nc1ccccc1C(=O)N/N=C/c1ccccc1)c1ccco1 [Compound 9a, (E)-N-{2-[(2-Benzylidenehydrazine)-1-carbonyl]phenyl}furan-2-carboxamide]",–
0.66 ± 0.11,188 to 189,0.62 ± 0.12,85.4 ± 0.32 nM,87.6 ± 0.13,–,"NS(=O)(=O)c1ccc(NC(=O)c2ccccc2NC(=O)c2ccco2)cc1 [Compound 6a, N-{2-[(4-Sulfamoylphenyl)carbamoyl]phenyl}furan-2-carboxamide]",–
0.48 ± 0.01,–,0.78 ± 0.11,31 nM and 31.2 nM,108.4 ± 0.14,–,"O=C(Nc1ccccc1C(=O)N/N=C/c1ccc(O)cc1O)c1ccco1 [Compound 9b, (E)-N-{2-[2-(2,4-Dihydroxybenzylidene)hydrazine-1-carbonyl]phenyl}furan-2-carboxamide]",–
0.4,–,0.34 ± 0.2,110 ± 0.14 nM,155 ± 0.25,0.32 ± 0.21,"O=C(Nc1ccccc1C(=O)Nc1ccc(S(=O)(=O)Nc2nccs2)cc1)c1ccco1 [Compound 6c, N-{2-[(4-(N-(Thiazol-2-Yl)sulfamoyl)phenyl)carbamoyl]phenyl}furan-2-carboxamide]",accumulation of apoptotic cells
